Laboratory results: patent publication US11291666B2, “Uses” (INTRA-CELLULAR THERAPIES, INC., priority 2016, dated 2022)

What was measured:
C57Bl/6 mice = assay: Chronic unpredictable stress (CUS) model, inflammatory markers and depression-like behaviors; assay type: in vivo, mouse; conditions: 10 mg/kg i.p. daily
Description: This experiment compares the impact of chronic stress on the brain cytokine/chemokine profile in wild type mice vs PDE1B conditional knockout mice.
PDE1B conditional knockout mice are described in Siuciak J A, et al. “Behavioral and neurochemical characterization of mice deficient in the phosphodiesterase-1B (PDE1B) enzyme.” Neuropharmacology. 2007 July; 53(1):113-24. Protocols for CUS and other models of chronic stress are described in Monteiro, et al., “An Efficient Chronic Unpredictable Stress Protocol to Induce Stress-Related Responses in C57BL/6 Mice,” Front Psychiatry. 2015; 6: 6 and in Mann et al., “Chronic social defeat, but not restrain stress, alters bladder function in mice” Physiol. Behav. 2015; Oct. 15; 150: 83-92.
Generally, wild type (control) mice and PDE1B conditional knockout mice, as appropriate, are exposed to the chronic stress using restraint stress in shallow water model (RSSW) as described by Mann et al (2015), above. […] Control mice for these experiments are also maintained in single housing cages. In accordance the stress protocol, the mice are monitored for the depression-like behavior profile. Mice are then sacrificed and tissue samples are collected. […] Brain tissue and serum is analyzed for a panel of markers, including pro-inflammatory and anti-inflammatory cytokines and chemokines.
C57Bl/6 mice are subjected to the CUS protocol (14d, as described) or sham treatment, evaluated for depression-like behaviors at a specified time points, and sacrificed for collection of blood (serum preparation) and brain collection. Serum is analyzed for corticosterone (CORT) levels and other inflammatory markers. The brain is analyzed for a panel of inflammatory markers by qPCR (mRNA) and MSD (protein).
Mice are evaluated for depression-like behaviors at a specified time point to test the impact of the CUS protocol and of the PDE1 inhibitor treatment on the depression-like phenotype. […] Serum is analyzed for CORT levels and other inflammatory markers. Brain samples are analyzed for a panel for a panel of inflammatory markers by qPCR (mRNA) and MSD (protein). […]

BV2 cells [1] = assay: Quantitative PCR of inflammatory cytokine mRNA in LPS-treated BV2 cells; assay type: cell-based, mouse
Method: Levels of IL1β are measured using quantitative PCR of IL1β mRNA. IL1β is considered a marker of inflammation. Results are depicted in FIG. 2 (RQ: relative quantification of changes in gene expression in treated versus control samples; ***p<0.01 vs control, √p<0.01 vs LPS alone; ANOVA with Newman-Keuls post-hoc test).
BV2 cells are pretreated with compound, ITI-214 or rolipram, a PDE4 inhibitor, then stimulated with 50 ng/ml LPS for 4 hours. Expression levels of TNF, IL1β, Ccl2, and IL6 are measured. Normalized mRNA levels are shown as change from vehicle (ΔΔCt) and compared using a one-way ANOVA. […] The mRNA transcripts for TNF, IL1β, and Ccl2—three of the four cytokines studied in vivo—were elevated in BV2 cells treated with 50 ng/ml LPS.
The test compound is added first, the LPS is added one hour later, and the cells and/or media are harvested at five hours from commencement of the experiment.
RTqPCR: RNA from BV2 cells purified using RNeasyKit (Qiagen) and from mouse tissue using TRIzol (Ambion). TaqMan primer-probe assays from Thermo Fisher. mRNA levels for all conditions are normalized to GAPDH and to vehicle control (ΔΔCt). Data are analyzed statistically using one-way ANOVA with the Bonferroni post-test for multiple comparisons.

BV2 cells [2] = assay: RT-qPCR of selected genes in BV2 cells with ITI-214, cyclase activators and PKA/PKG inhibitors; assay type: cell-based, mouse
Method: In a further experiment a group of genes is selected for further analysis by RT-qPCR. For comparison, genes are analyzed which have been implicated in the scientific literature in microglial and astrocyte activation, including genes in the complement pathway.
All sample values are normalized to an average of 3 reference genes and to vehicle control (ΔΔCt). The error bars represent the mean+/−SEM (n=4). From left to right, for each cytokine grouping, the bars indicate samples treated with: LPS, 0.1 μM 214+LPS, 0.4 μM 214+LPS, 1.1 μM 214+LPS, 3.3 μM 214+LPS, 10 μM 214+LPS, for each particular gene shown on the X-axis. Significant changes between LPS and 10 μM ITI-214+LPS (A) and Vehicle and 10 μM ITI-214 (B) are marked on the X-axis gene names and are calculated using a one-way ANOVA. * p<0.05, **p<0.01, ***p<0.001, ****p<0.0001.
In one particular experiment, BV2 cells are treated with 10 μM forskolin (FSK) to activate adenylyl cyclases, 5 μM DEANO to activate soluble guanylyl cyclase, or 100 nM atrial natriuretic peptide (ANP) to activate particulate guanylyl cyclase. […] Upon combining forskolin with ITI-214 some of the effects of ITI-214 inhibition can be increased. […] However, LIF reverts to LPS-level expression when forskolin is added.
Note that gene expression levels upon addition of PKA or PKG inhibitor to 10 μM ITI-214 are on the order of those relative to LPS treatment alone were reduced to levels equivalent to 3.3 μM ITI-214.

[3] = BV2 cells, 50 ng/ml LPS for 4 hours, 10 μM, FIG. 4b
[4] = BV2 cells, Compound 214 at 10 μM, FIG. 4a

CN1C(=O)c2c(nn(Cc3ccc(-c4cccc(F)n4)cc3)c2Nc2ccccc2)N2C1=N[C@@H]1CCC[C@@H]12 [Compound 214]
effect on tissue and serum markers and behaviors in PDE1B KO mice (C57Bl/6 mice; PDE1B KO mice, CUS): no significant effect
CUS-induced CNS and serum markers (proinflammatory) (C57Bl/6 mice; normal C57Bl/6 mice, CUS 14d): significantly suppresses
expression of depression-like behaviors (C57Bl/6 mice; normal C57Bl/6 mice, CUS 14d): significantly suppresses
Chemokine (C-C) motif Ligand 2 expression (Q-PCR) (BV2 cells [1]; BV2 + LPS, initial results): Down
Interleukin 1 beta expression (Q-PCR) (BV2 cells [1]; BV2 + LPS, initial results): Down
Tumor necrosis factor expression (Q-PCR) (BV2 cells [1]; BV2 + LPS, initial results): Down
Ccl2 mRNA signal (BV2 cells [1]; [3]): significantly decreased
IL1β mRNA signal (BV2 cells [1]; [3]): trended downward
TNF mRNA signal (BV2 cells [1]; [3]): significantly decreased
LPS-induced increase in expression of Ccl2 (BV2 cells [1]; [4]): significantly reduces
LPS-induced increase in expression of IL1β (BV2 cells [1]; [4]): significantly reduces
LPS-induced increase in expression of TNFα (BV2 cells [1]; [4]): significantly reduces
LPS-induced changes in proinflammatory markers (BV2 cells [1]; BV2 cells, separate experiment, FIG. 4b, 50 ng/ml LPS for 4 hours): greatly reduces or blunts
induction of Cx3cr1 by LPS (BV2 cells [2]): significantly reduced
modulation of transcriptional responses to LPS (BV2 cells [2]; 50 ng/ml LPS, 0.1-10 μM, FIG. 10a): dose dependent
ITI-214 responsive transcripts (Cx3cr1, Csf2, TNF, Cc14, MAPKAPK2, PtpN6, Ccr1) with concomitant forskolin (BV2 cells [2]; LPS, 10 μM forskolin, FIG. 11a): further down- or up-modulated
impact of ITI-214 on addition of PKA inhibitor cAMPS-Rp or PKG inhibitor -8-Br-PET-cGMPS (BV2 cells [2]; LPS, inhibitors 100 μM, FIG. 11b): Moderate reduction
basal expression of Cx3cr1 (BV2 cells [2]; in the absence of LPS): significantly reduced
LIF expression (BV2 cells [2]; with LPS, FIG. 11a): further increased
